Reference: ChEMBL document CHEMBL1201862, “PubChem BioAssay data set” (2004)
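Tested at 5 concentrations; 48 h exposure; 96-well plates; endpoints linearly interpolated, else capped at highest concentration. Abbreviation: GI50, concentration required for 50% inhibition of growth.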 Active and inactive are the calls of the source. Rule as the data show it: active = GI50 up to about 1.1 µM and inactive = higher.

Legend:
Test in all cases: NCI tumour cell line growth inhibition, 48 h
SK-OV-3 = system: SK-OV-3
KM12 = system: KM12
786-0 = system: 786-0
UACC-62 = system: UACC-62
K562 = system: K562
HOP-62 = system: HOP-62
OVCAR-4 = system: OVCAR-4
U-251 = system: U-251
RPMI-8226 = system: RPMI-8226
NCI-H226 = system: NCI-H226
SF-539 = system: SF-539
SK-MEL-5 = system: SK-MEL-5
DMS-114 = system: DMS-114
DMS-273 = system: DMS-273
MOLT-4 = system: MOLT-4
ACHN = system: ACHN
OVCAR-5 = system: OVCAR-5
HCT-15 = system: HCT-15
SNB-75 = system: SNB-75
OVCAR-3 = system: OVCAR-3
HL-60 = system: HL-60
HT-29 = system: HT-29
EKVX = system: EKVX
HCC 2998 = system: HCC 2998
HCT-116 = system: HCT-116
KM-20L2 = system: KM-20L2
RXF 393 = system: RXF 393
UO-31 = system: UO-31
DLD-1 = system: DLD-1
OVCAR-8 = system: OVCAR-8
SF-295 = system: SF-295
UACC-257 = system: UACC-257
SNB-78 = system: SNB-78
M14 = system: M14
NCI-H460 = system: NCI-H460
A549 = system: A549
SW-620 = system: SW-620
LXFL 529 = system: LXFL 529
XF498 = system: XF498
CCRF-CEM = system: CCRF-CEM
IGROV-1 = system: IGROV-1
CAKI-1 = system: CAKI-1
Malme-3M = system: Malme-3M
SK-MEL-2 = system: SK-MEL-2
SK-MEL-28 = system: SK-MEL-28
A498 = system: A498
TK-10 = system: TK-10
NCI-H23 = system: NCI-H23
COLO 205 = system: COLO 205
SF-268 = system: SF-268
SN12C = system: SN12C
SNB-19 = system: SNB-19
LOX IMVI = system: LOX IMVI
HOP-92 = system: HOP-92
NCI-H522 = system: NCI-H522

With O=[N+]([O-])c1ccc(/C=C/c2ccc(/C=C/c3ccc([N+](=O)[O-])cc3[N+](=O)[O-])cc2)c([N+](=O)[O-])c1 the GI50 (SK-OV-3) was > 100 µM (inactive), the GI50 (KM12) was > 100 µM (inactive) and the GI50 (786-0) was > 100 µM (inactive). For the same compound, the GI50 (UACC-62) was > 100 µM (inactive), the GI50 (K562) was > 100 µM (inactive) and the GI50 (HOP-62) was > 100 µM (inactive). For the same compound, the GI50 (OVCAR-4) was > 100 µM (inactive), the GI50 (U-251) was > 100 µM (inactive) and the GI50 (RPMI-8226) was > 100 µM (inactive). The GI50 (NCI-H226) was > 100 µM (inactive), the GI50 (SF-539) was > 100 µM (inactive) and the GI50 (SK-MEL-5) was > 100 µM (inactive). The GI50 (DMS-114) was > 100 µM (inactive), the GI50 (DMS-273) was > 100 µM (inactive) and the GI50 (MOLT-4) was > 100 µM (inactive). The GI50 (ACHN) was > 100 µM (inactive), the GI50 (OVCAR-5) was > 100 µM (inactive) and the GI50 (HCT-15) was over 100 µM. The GI50 (SNB-75) was > 100 µM (inactive), the GI50 (OVCAR-3) was > 100 µM (inactive) and the GI50 (HL-60) was > 100 µM (inactive). For the same compound, the GI50 (HT-29) was > 100 µM (inactive), the GI50 (EKVX) was > 100 µM (inactive) and the GI50 (HCC 2998) was > 100 µM (inactive). For the same compound, the GI50 (HCT-116) was > 100 µM (inactive), the GI50 (KM-20L2) was > 100 µM (inactive) and the GI50 (RXF 393) was > 100 µM (inactive). The GI50 (UO-31) was > 100 µM (inactive), the GI50 (DLD-1) was > 100 µM (inactive) and the GI50 (OVCAR-8) was > 100 µM (inactive). The GI50 (SF-295) was > 100 µM (inactive), the GI50 (UACC-257) was > 100 µM (inactive) and the GI50 (SNB-78) was > 100 µM (inactive). For the same compound, the GI50 (M14) was > 100 µM (inactive), the GI50 (NCI-H460) was > 100 µM (inactive) and the GI50 (A549) was > 100 µM (inactive). The GI50 (SW-620) was > 100 µM (inactive), the GI50 (LXFL 529) was > 100 µM (inactive) and the GI50 (XF498) was > 100 µM (inactive). For the same compound, the GI50 (CCRF-CEM) was > 100 µM (inactive), the GI50 (IGROV-1) was > 100 µM (inactive) and the GI50 (CAKI-1) was > 100 µM (inactive). For the same compound, the GI50 (Malme-3M) was > 100 µM (inactive), the GI50 (SK-MEL-2) was > 100 µM (inactive) and the GI50 (SK-MEL-28) was > 100 µM (inactive). The GI50 (A498) was > 100 µM (inactive), the GI50 (TK-10) was > 100 µM (inactive) and the GI50 (NCI-H23) was > 100 µM (inactive).

C/C(=N\N(C)C)C(CN(C)C)C(c1ccccc1)c1c(O)c2ccccc2oc1=O (stereo not drawn) was tested, and the GI50 (SK-OV-3) was > 100 µM (inactive), the GI50 (COLO 205) was > 100 µM (inactive) and the GI50 (KM12) was > 100 µM (inactive). For the same compound, the GI50 (786-0) was > 100 µM (inactive), the GI50 (UACC-62) was > 100 µM (inactive) and the GI50 (K562) was > 100 µM (inactive). For the same compound, the GI50 (OVCAR-4) was > 100 µM (inactive), the GI50 (U-251) was > 100 µM (inactive) and the GI50 (RPMI-8226) was > 100 µM (inactive). The GI50 (NCI-H226) was > 100 µM (inactive), the GI50 (SK-MEL-5) was > 100 µM (inactive) and the GI50 (DMS-114) was > 100 µM (inactive). The GI50 (DMS-273) was > 100 µM (inactive), the GI50 (MOLT-4) was > 100 µM (inactive) and the GI50 (ACHN) was > 100 µM (inactive). For the same compound, the GI50 (OVCAR-5) was > 100 µM (inactive), the GI50 (HCT-15) was over 100 µM and the GI50 (SNB-75) was 30.3 µM (inactive). The GI50 (OVCAR-3) was > 100 µM (inactive), the GI50 (SF-268) was > 100 µM (inactive) and the GI50 (HL-60) was > 100 µM (inactive). The GI50 (HT-29) was > 100 µM (inactive), the GI50 (EKVX) was 68.7 µM (inactive) and the GI50 (HCC 2998) was > 100 µM (inactive). For the same compound, the GI50 (HCT-116) was > 100 µM (inactive), the GI50 (KM-20L2) was > 100 µM (inactive) and the GI50 (RXF 393) was > 100 µM (inactive). The GI50 (DLD-1) was > 100 µM (inactive), the GI50 (OVCAR-8) was > 100 µM (inactive) and the GI50 (SF-295) was > 100 µM (inactive). For the same compound, the GI50 (UACC-257) was > 100 µM (inactive), the GI50 (SNB-78) was > 100 µM (inactive) and the GI50 (M14) was > 100 µM (inactive). The GI50 (SN12C) was > 100 µM (inactive), the GI50 (NCI-H460) was > 100 µM (inactive) and the GI50 (SNB-19) was > 100 µM (inactive). The GI50 (A549) was > 100 µM (inactive), the GI50 (LOX IMVI) was > 100 µM (inactive) and the GI50 (SW-620) was > 100 µM (inactive). The GI50 (LXFL 529) was > 100 µM (inactive), the GI50 (XF498) was > 100 µM (inactive) and the GI50 (CCRF-CEM) was > 100 µM (inactive). For the same compound, the GI50 (IGROV-1) was > 100 µM (inactive), the GI50 (HOP-92) was 70.5 µM (inactive) and the GI50 (NCI-H522) was > 100 µM (inactive). For the same compound, the GI50 (Malme-3M) was > 100 µM (inactive), the GI50 (SK-MEL-2) was > 100 µM (inactive) and the GI50 (SK-MEL-28) was > 100 µM (inactive). For the same compound, the GI50 (TK-10) was > 100 µM (inactive) and the GI50 (NCI-H23) was > 100 µM (inactive).
